Our source for the IC50 values is patent publication US20240228490A1, “HETEROCYCLIC DERIVATIVE INHIBITOR AND PREPARATION METHOD THEREFOR AND APPLICATION THEREOF” (Shanghai Hansoh Biomedical Co., Ltd., priority 2021, published 2024).

The assay deals with PARP1 enzyme (Homo sapiens (Human), UniProt P09874). The assay can be described thus: Inhibitory activity on PARP1 enzyme (chemiluminescence). It counts as biochemical. Here is the method: The inhibitory activity of the compounds on PARP1 enzyme was determined by the chemiluminescence method in the experiment. The experiment was carried out in a 384-well plate. Coating histones in a 384-well plate: 5×histone solution was diluted 5 folds with PBS, added to a 384-well ELISA plate (25 μL per well), and incubated at 4° C. overnight. […] A mixture of PARP reaction biotin-labeled substrate, activated DNA, 10×PARP buffer and water was added (12.5 μL per well). Compound solutions with different concentrations were formulated using the experimental buffer (10% DMSO aqueous solution containing 1.25 mM DTT). The final detection concentration started from 100 nM, with 3-fold dilution and 8 concentrations. The compound solutions were added to the reaction wells of the 384-well plate (2.5 μL per well). 2.5 μL of 10% DMSO aqueous solution containing 1.25 mM DTT was added to the positive control well and blank well (2.5 μL per well). […] The plate was centrifuged at 1000 rpm for 1 minute, and reacted at room temperature for 60 minutes. […] Streptavidin-HRP solution diluted 50 folds with Blocking buffer 3 was added (25 μL per well), and the plate was incubated at room temperature for 30 minutes. […] The luminescence reaction solution obtained by mixing ECL substrate A and ELISA ECL substrate B (1:1) was added (50 μL per well) for reaction. The chemiluminescence values were measured immediately with a BioTek Synergy H1 or Envision instrument.
Chain of PARP1 enzyme (P09874 whole entry): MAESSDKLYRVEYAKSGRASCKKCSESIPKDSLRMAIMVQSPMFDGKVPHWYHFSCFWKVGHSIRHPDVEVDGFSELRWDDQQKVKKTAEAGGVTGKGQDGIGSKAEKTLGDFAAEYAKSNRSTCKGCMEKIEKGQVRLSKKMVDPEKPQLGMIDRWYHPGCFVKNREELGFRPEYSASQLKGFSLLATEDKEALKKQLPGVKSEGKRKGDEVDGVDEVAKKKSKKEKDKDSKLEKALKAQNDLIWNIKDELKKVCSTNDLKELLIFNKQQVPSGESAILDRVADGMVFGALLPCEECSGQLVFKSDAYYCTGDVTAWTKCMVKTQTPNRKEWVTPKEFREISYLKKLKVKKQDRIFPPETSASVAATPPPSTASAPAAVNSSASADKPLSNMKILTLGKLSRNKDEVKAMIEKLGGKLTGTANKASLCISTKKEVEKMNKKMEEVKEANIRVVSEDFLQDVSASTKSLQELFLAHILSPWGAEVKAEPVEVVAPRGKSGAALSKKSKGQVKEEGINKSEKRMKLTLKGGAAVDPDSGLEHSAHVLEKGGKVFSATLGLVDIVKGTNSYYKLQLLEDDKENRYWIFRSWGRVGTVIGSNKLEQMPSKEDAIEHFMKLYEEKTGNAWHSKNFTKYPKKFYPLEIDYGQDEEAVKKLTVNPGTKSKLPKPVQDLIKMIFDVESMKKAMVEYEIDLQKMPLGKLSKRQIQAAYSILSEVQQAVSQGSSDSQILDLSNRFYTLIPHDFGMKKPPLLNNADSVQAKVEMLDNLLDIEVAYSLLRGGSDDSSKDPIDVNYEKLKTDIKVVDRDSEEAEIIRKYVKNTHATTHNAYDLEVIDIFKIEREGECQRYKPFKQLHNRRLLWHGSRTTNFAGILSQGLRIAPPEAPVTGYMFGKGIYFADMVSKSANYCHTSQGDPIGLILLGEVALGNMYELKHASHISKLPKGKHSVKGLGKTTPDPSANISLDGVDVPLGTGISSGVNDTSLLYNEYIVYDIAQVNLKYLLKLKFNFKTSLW
The chemiluminescence values were measured with a BioTek Synergy H1 or Envision instrument. The inhibition rate was calculated, and the concentration and inhibition rate were fitted to a nonlinear regression curve using Graphpad Prism software to obtain the IC50 value.
As usually defined, the IC50 is the concentration at which inhibition is half-maximal. On to `CCc1cc2ncc(CN3CC=C(c4ccc(C(=O)NC)c(F)c4)CC3)cc2[nH]c1=O` [Example 33, 4-(1-((7-Ethyl-6-oxo-5,6-dihydro-1,5-naphthyridin-3-yl)methyl)-1,2,3,6-tetrahydropyridin-4-yl)-2-fluoro-N-methylbenzamide], for which the IC50 stood at 0.91 nM.
Consider `CCc1cc2ncc(CN3CC=C(c4ccc(C(=O)N[C@H]5CCOC5)nc4)CC3)cc2[nH]c1=O` [Example 31, (S)-1′-((7-Ethyl-6-oxo-5,6-dihydro-1,5-naphthyridin-3-yl)methyl)-N-(tetrahydrofuran-3-yl)-1′,2′,3′,6′-tetrahydro-[3,4′-bipyridine]-6-carboxamide], for which the IC50 turned out to be 1 nM.
To `CCc1cc2ncc(CN3CC=C(c4ccc(C(=O)NC)c(F)c4Cl)CC3)cc2[nH]c1=O` [Example 65, 3-Chloro-4-(1-((7-ethyl-6-oxo-5,6-dihydro-1,5-naphthyridin-3-yl)methyl)-1,2,3,6-tetrahydropyridin-4-yl)-2-fluoro-N-methylbenzamide] belongs 2.2 nM; to `CCn1c(=O)[nH]c2cc(CN3CC=C(c4ccc(C(=O)NC)nc4F)CC3)ccc2c1=O` [Example 91, 1′-((3-Ethyl-2,4-dioxo-1,2,3,4-tetrahydroquinazolin-7-yl)methyl)-2-fluoro-N-methyl-1′,2′,3′,6′-tetrahydro-[3,4′-bipyridine]-6-carboxamide], 3 nM; to `CCC1Oc2ncc(CN3CC=C(c4ccc(C(=O)NC)nc4C)CC3)cc2NC1=O` (centres unmarked) [Example 86, 1′-((3-Ethyl-2-oxo-2,3-dihydro-1H-pyrido[2,3-b][1,4]oxazin-7-yl)methyl)-N,2-dimethyl-1′,2′,3′,6′-tetrahydro-[3,4′-bipyridine]-6-carboxamide], 5.1 nM.
Take `CCc1cc2ncc(CN3CC=C(c4ccc(C(=O)N[C@@H]5CCOC5)nc4)CC3)cc2[nH]c1=O` [Example 32, (R)-1′-((7-Ethyl-6-oxo-5,6-dihydro-1,5-naphthyridin-3-yl)methyl)-N-(tetrahydrofuran-3-yl)-1′,2′,3′,6′-tetrahydro-[3,4′-bipyridine]-6-carboxamide]: the IC50 came out at 1 nM.
On to `CCc1cc2ncc(CN3CCN(c4cnc5[nH]ccc5c4)CC3)cc2[nH]c1=O` [Example 23, 7-((4-(1H-Pyrrolo[2,3-b]pyridin-5-yl)piperazin-1-yl)methyl)-3-ethyl-1,5-naphthyridin-2(1H)-one], for which the IC50 is 3.3 nM.
To `CCc1cc2ncc(CN3CCN(c4ccc5c(c4)C(=O)N(C)C5=O)CC3)cc2[nH]c1=O` [Example 79, 5-(4-((7-Ethyl-6-oxo-5,6-dihydro-1,5-naphthyridin-3-yl)methyl)piperazin-1-yl)-2-methylisoindoline-1,3-dione] belongs 3.3 nM; to `CCc1cc2ncc(CN3CC=C(c4ccc(C(=O)NC#N)nc4)CC3)cc2[nH]c1=O` [Example 57, N-Cyano-1′-((7-ethyl-6-oxo-5,6-dihydro-1,5-naphthyridin-3-yl)methyl)-1′,2′,3′,6′-tetrahydro-[3,4′-bipyridine]-6-carboxamide], 2.8 nM; to `CCC1Oc2ncc(CN3CC=C(c4ccc(C(=O)NC)nc4F)CC3)cc2NC1=O` (centres unmarked) [Example 90, 1′-((3-Ethyl-2-oxo-2,3-dihydro-1H-pyrido[2,3-b][1,4]oxazin-7-yl)methyl)-2-fluoro-N-methyl-1′,2′,3′,6′-tetrahydro-[3,4′-bipyridine]-6-carboxamide], 2.7 nM.
With `CCC1Oc2ccc(CN3CC=C(c4ccc(C(=O)NC)nc4Cl)CC3)cc2NC1=O` (centres unmarked) [Example 87, 2-Chloro-1′-((2-ethyl-3-oxo-3,4-dihydro-2H-benzo[b][1,4]oxazin-6-yl)methyl)-N-methyl-1′,2′,3′,6′-tetrahydro-[3,4′-bipyridine]-6-carboxamide] the figure was 4.9 nM.
With `CCc1cc2ncc(CN3CCN(c4ccc5c(C(=O)NC)ncn5c4)CC3)cc2[nH]c1=O` [Example 80, 6-(4-((7-Ethyl-6-oxo-5,6-dihydro-1,5-naphthyridin-3-yl)methyl)piperazin-1-yl)-N-methylimidazo[1,5-a]pyridine-1-carboxamide] the figure was 5 nM; with `CCc1cc2ncc(CN3CC=C(c4ccc(C(=O)NC)c(F)c4F)CC3)cc2[nH]c1=O` [Example 67, 4-(1-((7-Ethyl-6-oxo-5,6-dihydro-1,5-naphthyridin-3-yl)methyl)-1,2,3,6-tetrahydropyridin-4-yl)-2,3-difluoro-N-methylbenzamide], 2.1 nM.
Take `CCc1cc2ncc(CN3CC=C(c4ccc(C(=O)NC)nc4OC)CC3)cc2[nH]c1=O` [Example 34, 1′-((7-Ethyl-6-oxo-5,6-dihydro-1,5-naphthyridin-3-yl)methyl)-2-methoxy-N-methyl-1′,2′,3′,6′-tetrahydro-[3,4′-bipyridine]-6-carboxamide]: the IC50 was determined as 1.6 nM.
Regarding `CCc1cc2ncc(CN3CCN(c4ccc5c(c4)CNC5=O)CC3)cc2[nH]c1=O` [Example 17, 3-Ethyl-7-((4-(1-oxoisoindolin-5-yl)piperazin-1-yl)methyl)-1,5-naphthyridin-2(1H)-one], the concentration for half-maximal inhibition (IC50) is 4.5 nM.
With `CCc1cc2ncc(CN3CCN(c4ccc5nc(C)[nH]c5c4)CC3)cc2[nH]c1=O` [Example 24, 3-Ethyl-7-((4-(2-methyl-1H-benzo[d]imidazol-6-yl)piperazin-1-yl)methyl)-1,5-naphthyridin-2(1H)-one], the IC50 was 1.7 nM.
As to `CCc1cc2ncc(CN3CC=C(c4ccc(C(=O)NC)c(F)c4C)CC3)cc2[nH]c1=O` [Example 66, 4-(1-((7-Ethyl-6-oxo-5,6-dihydro-1,5-naphthyridin-3-yl)methyl)-1,2,3,6-tetrahydropyridin-4-yl)-2-fluoro-N,3-dimethylbenzamide], the IC50 stood at 1.7 nM.
Take `CCC1Oc2ncc(CN3CC=C(c4ccc(C(=O)NC)nc4Cl)CC3)cc2NC1=O` (centres unmarked) [Example 85, 2-Chloro-1′-((3-ethyl-2-oxo-2,3-dihydro-1H-pyrido[2,3-b][1,4]oxazin-7-yl)methyl)-N-methyl-1′,2′,3′,6′-tetrahydro-[3,4′-bipyridine]-6-carboxamide]: the IC50 turned out to be 3.5 nM.
With `CCc1cc2ncc(CN3CCN(c4ccc5c(c4)CN(C)C5=O)CC3)cc2[nH]c1=O` [Example 6, 3-Ethyl-7-((4-(2-methyl-1-oxoisoindolin-5-yl)piperazin-1-yl)methyl)-1,5-naphthyridin-2(1H)-one] the figure was 2.9 nM; with `CCC1Oc2ccc(CN3CC=C(c4ccc(C(=O)NC)nc4C)CC3)cc2NC1=O` (centres unmarked) [Example 88, 1′-((2-Ethyl-3-oxo-3,4-dihydro-2H-benzo[b][1,4]oxazin-6-yl)methyl)-N,2-dimethyl-1′,2′,3′,6′-tetrahydro-[3,4′-bipyridine]-6-carboxamide], 5 nM.
